Assays:
[1] = test system: skin wrinkles on the face of female subjects; experiment: Skin wrinkle improvement by computer aided laser profilometry (Skin Visiometer, silicone replicas); assay type: in vivo, human; details: 9 weeks
Procedure: The effects of the cosmetic compositions of Example 1 and Comparative Example 1 and 2 on skin wrinkle improvement were determined by computer aided laser profilometry.
It involved sixteen female subjects of 30 years and over. The cosmetic compositions of Example 1 and Comparative Examples 1 and 2 were applied on the face (area of 2×2 cm2) of the test subjects, once a day with dose of 0.05 g for 9 weeks. Then, replicas of their skin wrinkles were prepared using white plastic silicon precision moulding compound. The changes in the skin wrinkles of the replicas were detected with Skin Visiometer (SV600 manufactured by Courage+Khazaka electronic GmbH, Germany). Three-dimensional images of the replicas were analyzed with a CCD camera. The skin wrinkle improvement effect was determined as average roughness of the wrinkles (Rz) according to the following numerical formula I:
Rz=(R1+R2+ . . . +Rn−1+Rn)/Number of wrinkles(n) (I)
Wherein, Rn is the roughness of each wrinkle and n is the number of the wrinkles.

[2] = test system: skin of the upper outer arm of 16 human volunteers; experiment: Skin irritant potential, modified human 4-h patch test; assay type: in vivo
Procedure: The skin irritant potential of the cosmetic compositions of Example 1 and Comparative Example 1 and 2 were determined using a modification of the human 4-h patch test (Basketter D A, et al., Food Chem Toxicol 1997,:35: 845-852), involving application of 0.2 ml of the composition to be tested on a 25 mm plain Hill Top Chamber containing a Webril pad (Hill Top Companies, Cincinatti, Ohio, USA) to the skin of the upper outer arm of 16 human volunteers. Both upper arms of the panelist were used. Patches were applied in a balanced random order.
After 24 hours, the patches were removed and then the test areas were marked with a marking pen. After each lapse of 24, 48 and 72 hours, the test areas were observed and treatment sites were assessed for the presence of irritation using a 4 point scale (Table 2) at 24, 48 and 72 h after patch removal

[3] = emulsion (lotion) type formulation
[4] = lotion type cosmetic preparation, 0.20 wt% with 0.20 wt% retinyl palmitate
[5] = solution type formulation, 0.2 wt% with 0.2 wt% retinyl palmitate

| SMILES | effect on retinoid wrinkle improvement [1, 3] | effect on retinoid wrinkle improvement ([1]; solution type formulation) | effect of addition on irritancy of retinyl palmitate [2, 4] | effect of addition on irritancy of retinyl palmitate [2, 5] | efficiency relative to piceatannol on wrinkle improvement ([1]; emulsion type cosmetic preparations) |
| --- | --- | --- | --- | --- | --- |
| Oc1cc(O)cc(/C=C/c2ccc(O)c(O)c2)c1 [piceatannol, trans-3,4,3′,5′-tetrahydroxystilbene] | enhances the effect of retinol on wrinkle improvement | enhances the effect of retinol on wrinkle improvement | clearly reduced the irritancy of retinyl palmitate | clearly reduced the irritancy of retinyl palmitate |  |
| OC[C@H]1O[C@@H](Oc2cc(O)cc(/C=C/c3ccc(O)c(O)c3)c2)[C@H](O)[C@@H](O)[C@@H]1O (relative stereo) [astringin, trans-(3,5,3′,4′-tetrahydroxystilbene)-3-O-beta-d-glucopyranoside] | enhances the effect of retinol on wrinkle improvement | enhances the effect of retinol on wrinkle improvement | clearly reduced the irritancy of retinyl palmitate | clearly reduced the irritancy of retinyl palmitate | seems to be m ore efficient than piceatannol |
